Drawing on PubChem BioAssay AID434987 (Southern Research Specialized Biocontainment Screening …, 2010), this text covers IC50 and IC90 for 22 compounds.

The assay deals with M. tuberculosis H37Rv growth inhibition with meropenem. Put plainly: dose response, H37Rv, with and without meropenem (AID 434987).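 Also: growth over 7 days at 37 °C before Alamar Blue read on day 9.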
Where [1] appears, read: M. tuberculosis H37Rv growth inhibition, measured here: IC50 without meropenem.
Setting [2] is: M. tuberculosis H37Rv growth inhibition, measured here: IC90 without meropenem.
The mark [3] stands for this setting: measured here: IC90 with meropenem.

Molecules are shown by their SMILES. Activity calls are given as the source filed them. No rule for the calls is given here.

Usually IC50 stands for the point on the concentration scale where inhibition reaches its midpoint. As usually defined, the IC90 is the concentration at which the effect reaches the 90% level. A lower IC90 goes with greater potency. `CCCN1C(=O)S/C(=C/c2ccc(N3CCOCC3)o2)C1=O`: the IC50 is under 0.2 µM. The IC50 under setting [1] was 34.9 µM. For the same compound, the IC90 under setting [2] was over 100 µM. Moreover, the IC90 under setting [3] is over 100 µM.

For `Cc1nc2ccccc2c(=O)n1/N=C/c1c(O)ccc2oc3c(c12)CCCC3`, the IC50 was > 100 µM (inactive). Further, the IC50 under setting [1] was over 100 µM. For the same compound, the IC90 under setting [2] was over 100 µM. Under setting [3], this compound yielded a 90% effect concentration (IC90) of over 100 µM.

For the compound `Cc1c(C(=O)NC(=S)Nc2ccccc2N2CCCC2)cccc1[N+](=O)[O-]`, the IC50 was 63.5 µM (inactive). Besides, the IC50 under setting [1] stood at 82.6 µM. The same compound returned an IC90 under setting [2] of over 100 µM. Under setting [3], this compound yielded an IC90 of over 100 µM.

As for `Cc1c(C=O)c(C=O)c(C)n1Cc1ccccc1`, the IC50 was 31.9 µM (inactive). The IC50 under setting [1] worked out at 52 µM. Moreover, the IC90 under setting [2] was over 100 µM. The compound also registered an IC90 under setting [3] of 69.3 µM.

Take `COC(=O)Cn1nc(-c2ccccc2)c2ccccc21`: the IC50 was > 100 µM (inactive). Besides, the IC50 under setting [1] was over 100 µM. The IC90 under setting [2] was over 100 µM. Besides, the IC90 under setting [3] was over 100 µM.

`Fc1ccc(C2Nc3cccc4cccc(c34)N2)cc1`: the IC50 is > 100 µM (inactive). The compound further registered an IC50 under setting [1] of over 100 µM. This compound also yielded an IC90 under setting [2] of over 100 µM. This compound also gave an IC90 under setting [3] of over 100 µM.

Turning to `COc1cccc(NC(=S)Nc2cc(C)cc(C)n2)c1`, the IC50 was 6.41 µM. The compound further registered an IC50 under setting [1] of over 100 µM. The IC90 under setting [2] was over 100 µM. The same compound showed an IC90 under setting [3] of over 100 µM.

For the compound `CC(=O)Nc1ccc(SCC(=O)c2cc(C)n(CC(F)(F)F)c2C)cc1`, the IC50 is 47.7 µM (inactive). Further, the IC50 under setting [1] was determined as 53.5 µM. This compound yielded an IC90 under setting [2] of over 100 µM. Under setting [3], this compound registered an IC90 of over 100 µM.

Regarding `C=CCN=c1scc(-c2ccc(F)cc2)n1/N=C/c1ccccn1`, the IC50 is 33 µM. For the same compound, the IC50 under setting [1] was determined as 92.8 µM. Moreover, under setting [2], the concentration for an effect of 90% (IC90) is over 100 µM. The same compound showed a 90% effect concentration (IC90) under setting [3] of 71.7 µM.

Take `O=c1cc(C(F)(F)F)c2sc(N3CCCCC3)nc2[nH]1`: the IC50 was 45.4 µM (inactive). Under setting [1], this compound had an IC50 of over 100 µM. The compound also displayed an IC90 under setting [2] of over 100 µM. This compound also yielded an IC90 under setting [3] of 49.3 µM.

As for `O=C(c1csc2c1CCCC2)n1cccn1`, the IC50 was 49.4 µM (inactive). The same compound displayed an IC50 under setting [1] of 97.3 µM. This compound yielded an IC90 under setting [2] of over 100 µM. Moreover, the IC90 under setting [3] was over 100 µM.

Turning to `O=C(N/N=C/c1cccc(NC(=O)c2ccc(Cl)cc2)c1)c1cccc(O)c1`, the IC50 is > 100 µM (inactive). Further, the IC50 under setting [1] is over 100 µM. Under setting [2], this compound showed an IC90 of over 100 µM. The compound also yielded an IC90 under setting [3] of over 100 µM.

Take `CCN(CC)C(=O)C1CCCN(c2ccc([N+](=O)[O-])cc2/C=N/NC(=O)c2cccc(O)c2)C1` (stereo not drawn): the IC50 is 48.1 µM (inactive). This compound came in with an IC50 under setting [1] of 47.1 µM. Under setting [2], this compound displayed an IC90 of 70.6 µM. Under setting [3], the IC90 turned out to be 55.3 µM.

As to `O=c1[nH]c(=S)[nH]c(O)c1N=Nc1ccc2c(c1)OCCO2`, the IC50 was > 100 µM (inactive). In addition, the IC50 under setting [1] is over 100 µM. This compound also yielded an IC90 under setting [2] of over 100 µM. Further, the IC90 under setting [3] is over 100 µM.

In the case of `O=C(CSc1ncnc2c1cnn2-c1ccccc1)Nc1ccc2c(c1)OCO2`, the IC50 is 27.3 µM (inactive). The same compound showed an IC50 under setting [1] of 49.1 µM. This compound also returned an IC90 under setting [2] of over 100 µM. This compound also displayed an IC90 under setting [3] of over 100 µM.

As for `C[C@H](NC(=O)c1[nH]cnc1C(=O)Nc1ccc(Cl)cc1)C(=O)OC(C)(C)C`, the IC50 was 10.4 µM. Under setting [1], this compound showed an IC50 of over 100 µM. Under setting [2], this compound came in with an IC90 of over 100 µM. The same compound gave an IC90 under setting [3] of over 100 µM.

With `Cc1cccc(NC(=O)c2cc3ccccc3c(=O)o2)n1`, the IC50 is 37.9 µM. For the same compound, under setting [1], the IC50 was over 100 µM. Besides, the IC90 under setting [2] is over 100 µM. Further, the 90% effect concentration (IC90) under setting [3] is over 100 µM.

Regarding `Cc1nn(C)c(C)c1C1C(C#N)=C(N)OC2=C1C(=O)CCC2` (stereo not drawn), the IC50 is > 100 µM (inactive). The compound also gave a half-inhibitory concentration (IC50) under setting [1] of over 100 µM. Also, the IC90 under setting [2] was over 100 µM. In addition, the IC90 under setting [3] is over 100 µM.

On to `CCN(CC)C(=O)COc1ccc(-c2nnc(Nc3ccc(OC)c(C(=O)NC)c3)c3ccccc23)cc1`, for which the IC50 is 68.8 µM (inactive). The compound also came in with an IC50 under setting [1] of 82.3 µM. The IC90 under setting [2] was over 100 µM. Further, the IC90 under setting [3] was over 100 µM.

As for `CC(C)(C)c1cc(Cc2ccccc2)[nH]n1`, the IC50 was 28.2 µM (inactive). The IC50 under setting [1] turned out to be 43.1 µM. The IC90 under setting [2] is over 100 µM. This compound also had an IC90 under setting [3] of over 100 µM.

For `COCCNC(=S)N/N=C1\CC(C)CC(C)(C)C1` (stereo not drawn), the IC50 was 24.5 µM (inactive). In addition, the IC50 under setting [1] was 32.4 µM. Under setting [2], this compound returned an IC90 of 41.1 µM. Under setting [3], the IC90 stood at 27.5 µM.

As to `COc1cc(C(=O)N/N=C/c2ccc(OC(=O)c3cccc(C)c3)cc2)ccc1O`, the IC50 was 4.54 µM. This compound also gave a 50% inhibitory concentration (IC50) under setting [1] of 77.7 µM. Moreover, the IC90 under setting [2] is over 100 µM. The compound also registered an IC90 under setting [3] of 53.4 µM.
